Results on one substance are retold here after patent publication US6576266B1, “Plant extract based on glycerides, a method for the preparation of this extract and a cosmetic composition containing the same” (Sodic SA, priority 1999, dated 2003).

Assay [1] concerns the target T1, elastase of human leukocytes (EHL) (Homo sapiens, UniProt P08246).
T1 sequence (P08246 30-267): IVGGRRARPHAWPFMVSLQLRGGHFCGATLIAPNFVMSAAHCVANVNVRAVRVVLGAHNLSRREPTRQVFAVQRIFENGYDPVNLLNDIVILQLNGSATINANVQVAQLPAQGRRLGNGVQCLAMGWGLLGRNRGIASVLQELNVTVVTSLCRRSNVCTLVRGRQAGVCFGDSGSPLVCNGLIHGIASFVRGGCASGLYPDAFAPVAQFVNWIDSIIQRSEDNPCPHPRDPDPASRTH
Briefly: Inhibitory action against elastase (synthetic substrate, spectrophotometry at 405 nm). The class given is biochemical. Here is the method:
It was of interest to investigate the inhibitory action against elastase by the powder extract of the invention and to compare it with that of ceramide 3 alone.
The inhibitory action of the powder extract of the invention against EHL was examined in an aqueous solution of a Tris-HCl buffer, using N-methoxysuccinyl-alanyl-alanyl-prolyl-valyl-para-nitroanilide as a synthetic substrate.
The kinetics of the reaction were determined by spectrophotometry at 405 nm, enabling the measurement of the release of para-nitroanilide, which is a coloured product. The percent inhibitory action of the preparation against the elastase was determined by comparison with a reference curve (hydrolysis of the substrate in the absence of an inhibitor).

Assay [2] deals with reduction of cytochrome c (xanthin oxidase). Briefly: Radical scavenging: slowing-down of the reduction of cytochrome c (Fridovitch and McCord). It counts as biochemical. The settings on record: 0.6315 mg/ml, phosphate buffer pH 7.8, 25° C. The text has this:
The experimental method is based on the procedure developed in 1973 by Fridovitch and McCord for SOD (J. Biol. Chem. 248, 2648).
The determination of the radical scavenging properties is based on the measurement of the inhibition or of the slowing-down of the reduction of cyto-chrome c by the product investigated, by comparison with the effect exerted by xanthin oxidase. The formation of reduced cytochrome c is monitored by spectrophotometry at 550 nm.
In these tests, a plant extract powder of the invention is used at a concentration of 1.5 mg/ml in a phosphate buffer pH 7.8 at 25° C.
Furthermore, an additional test was carried out with Dgdg alone, in the same conditions as above, but using the Fluka 36975 product having a purity of 95%.

As to “2,3-di-O-(fatty acid acyl)-1-O-[6′-O-α-D-galactopyranosyl-β-galactopyranosyl]-D-glycerine [Dgdg]”, in assay [1], the “Inhibitory activity against elastase (in words)” value was “practically no inhibitory activity”. Besides, the “Slowing-down of the reduction of cytochrome c” value in assay [2] came out at 36.1%.
